Results as given in BindingDB's records for doi:10.1016/j.ejmech.2020.113107 (Yantai University, 2021).

Experiments:
[1] = Reversal of P-glycoprotein mediated multidrug resistance in human KBV cells assessed as reversal of resistance to paclitaxel-induced cytotoxicity by measuring paclitaxel IC50 at 5 uM measured after 72 hrs by MTT assay
[2] = Reversal of P-glycoprotein mediated multidrug resistance in human MCF-7T cells assessed as reversal of resistance to paclitaxel-induced cytotoxicity by measuring paclitaxel IC50 at 10 uM measured after 72 hrs by MTT assay
[3] = Reversal of P-glycoprotein mediated multidrug resistance in human KBV cells assessed as reversal of resistance to vincristine-induced cytotoxicity by measuring vincristine IC50 at 10 uM measured after 72 hrs by MTT assay
[4] = Reversal of P-glycoprotein mediated multidrug resistance in human MCF-7T cells assessed as reversal of resistance to vincristine-induced cytotoxicity by measuring vincristine IC50 at 5 uM measured after 72 hrs by MTT assay
[5] = Reversal of P-glycoprotein mediated multidrug resistance in human MCF-7T cells assessed as reversal of resistance to vincristine-induced cytotoxicity by measuring vincristine IC50 at 10 uM measured after 72 hrs by MTT assay
[6] = Reversal of P-glycoprotein mediated multidrug resistance in human KBV cells assessed as reversal of resistance to vincristine-induced cytotoxicity by measuring vincristine IC50 at 5 uM measured after 72 hrs by MTT assay
[7] = Reversal of P-glycoprotein mediated multidrug resistance in human KBV cells assessed as reversal of resistance to paclitaxel-induced cytotoxicity by measuring paclitaxel IC50 at 10 uM measured after 72 hrs by MTT assay
[8] = Reversal of P-glycoprotein mediated multidrug resistance in human MCF-7T cells assessed as reversal of resistance to paclitaxel-induced cytotoxicity by measuring paclitaxel IC50 at 5 uM measured after 72 hrs by MTT assay

In the case of COc1cc2c(cc1OC)CN(CCc1ccc(NC(=O)c3cc(OC)c(OC)cc3NC(=O)c3cnc4ccccc4c3)cc1)CC2, the IC50 [1] is reported as 7.6 nM, the IC50 [2] is reported as 0.26 nM and the IC50 [3] is reported as 2.1 nM. For the same compound, the IC50 [4] was 0.71 nM, the IC50 [5] was 0.22 nM and the IC50 [6] was 3.3 nM. For the same compound, the IC50 [7] was 4.5 nM and the IC50 [8] was 3.3 nM.

CC1(C)CC[C@]2(C(=O)OCc3ccccc3)CC[C@]3(C)C(=CC[C@@H]4[C@@]5(C)Cc6nccnc6[C@@](C)(CO)[C@@H]5CC[C@]43C)[C@@H]2C1 gave an IC50 [1] of 59 nM, an IC50 [2] of 1.5 nM and an IC50 [3] of 2.2 nM. It also gave an IC50 [4] of 6.9 nM, an IC50 [5] of 0.03 nM and an IC50 [6] of 17 nM. For the same compound, the IC50 [7] was 16 nM and the IC50 [8] was 13 nM.

For CC1(C)CC[C@]2(C(=O)OCc3ccccc3)CC[C@]3(C)C(=CC[C@@H]4[C@@]5(C)Cc6nccnc6[C@@](C)(COC(=O)CCC(=O)OCCOCCOCCOCCO)[C@@H]5CC[C@]43C)[C@@H]2C1, the IC50 [1] was 22 nM, the IC50 [2] was 0.89 nM and the IC50 [3] was 0.79 nM. For the same compound, the IC50 [4] was 5.3 nM, the IC50 [5] was 0.04 nM and the IC50 [6] was 4 nM. For the same compound, the IC50 [7] was 4.6 nM and the IC50 [8] was 5.4 nM.
